Laboratory results published in publication PMC5618791, “Double quick, double click reversible peptide “stapling”” (Chemical Science, 2017).
Starred links: 1 amine or outer side, 2 acyl side, 3 side chain; linkers in the order of their positions; H or OH if unused. Positions of bridges follow the written chain, without caps; N, C: chain ends. Non-standard residues stand in square brackets, D forms with d. Residues, ends and D or L forms follow the SMILES beside them. Maleimide(3,4-diyl) = O=C1NC(=O)C([*:2])=C1[*:1]; Nle = CCCC[C@H](N)C(=O)O

Key:
[1] = molecular target: BODIPY-BAK/Bcl-xL interaction (Homo sapiens, UniProt Q07817); experiment: Fluorescence anisotropy competition assay, BODIPY-BAK/Bcl-xL; type: binding; settings: 25 nM tracer, 150 nM protein, 50 mM phosphate, 200 mM NaCl, 0.02 mg mL-1 BSA, pH 7.50; 1 h, room temperature; triplicate; read-out: IC50, inhibition of the BODIPY-BAK/Bcl-xL interaction
Protocol: (§1) Fluorescence anisotropy assays were performed in 384-well black plates (Greiner Bio-one).
(§2) Each experiment was run in triplicate and fluorescence anisotropy was measured using a Perkin Elmer EnVisionTM 2103 MultiLabel plate reader. […]
- 50 mM phosphate buffer at pH 7.5, containing 200 mM NaCl and 0.02 mg.mL-1 bovine serum albumin (BSA) for BODIPY-BAK/Bcl-xL. […]
(§3) 20 µL of assay buffer were first added to each well.
(§4) For each competition assay, 20 µL of a solution of α-helix mimetics (1 mM in 90:10 (v/v) assay buffer: DMSO) were added to the first column. The solution was well mixed and 20 µL were taken out and added to the next column and so on. This operation consisted on serial dilution of the peptides across the plate (24-points, 1/2 serial dilution). The tracer peptide and the targeted protein were added to each well to give a final concentration of 25 nM and […]
For each direct titration assay, 20 µL of a solution of the protein (60 µM in assay buffer) were added to the first column. […]
(§5) For control wells in both assays, the tracer peptide was replaced with an identical volume of assay buffer. […] Plates were read after 1 h of incubation […]
(§6) The average anisotropy (across three experimental replicates) and the standard deviation of these values were then calculated and fit to a sigmoidal logistic model (Equation 3) using OriginPro 9.0 which provided the IC50 and error values.

[2] = Trypsin proteolysis followed by LC-MS; type: in vitro ADME; settings: trypsin from bovine pancreas (isolated protease), pH 7.5, 1:10000 enzyme/substrate ratio, 50 mM phosphate buffer, 200 mM NaCl, pH 7.50, peptide 200 μM stock, 5% DMSO, LC-MS of intact peptide at 0, 5, 12, 21, 45, 90 min, read-out: t1/2, trypsin proteolysis
Protocol: Proteolysis studies on BID peptides
Trypsin, modified sequencing grade from bovine pancreas (lyophilized powder, MW = 24 kDa, ≥ 4 units/mg protein) was purchased from Sigma-Aldrich and used without further purification. BID peptides (200 µM stock in PBS buffer pH 7.50, 5% DMSO) were treated with Trypsin (0.02 µM stock solutions in PBS buffer pH 7.50) in a 1:10000 enzyme/substrate ratio.
The degradation was followed with LCMS (Aeris Peptide LC-Column XB-C18 2.6 µm, 100x2.1 mm, injection volume: 5 µL, acetonitrile/water (0.1% formic acid) 5-95% gradient).
The degradation pattern of each peptide (figure A) could be identified by mass spectrometry.
The cleavage sites are marked by dotted lines and the subsequent fragment masses, shown in squares, are allocated to a number which is reported on the LCMS graph (graph B).
The LCMS traces (graph B) of each peptide incubated with Trypsin were recorded at the following successive times: 0, 5, 12, 21, 45 and 90 min.
(graph C) was integrated to extract kinetic values.

[3] = molecular target: FITC-BID/Mcl-1 interaction (Homo sapiens, UniProt Q07820); experiment: Fluorescence anisotropy competition assay, FITC-BID/Mcl-1; type: binding; settings: 25 nM tracer, 150 nM protein, 50 mM Tris, 150 mM NaCl, 0.61% Triton X-100, pH 7.40; 1 h, room temperature; triplicate; read-out: IC50, inhibition of the FITC-BID/Mcl-1 interaction
Protocol: fluorescein-labelled FITC-Ahx-BID (80-102) was synthesised and purified as stated […]
as §1, §2
- 50 mM phosphate buffer at pH 7.5, containing 200 mM NaCl and 0.05% of tween for […]
as §3, §4, §5, §6

[4] = Circular dichroism, % helicity; type: physicochemical; settings: CD, peptide 10-20 μM, calculated from MRE at 222 nm
Protocol: Samples were prepared in two different solvent systems (30% TFE:H2O, 30% CH3CN:water) to concentrations between 10 - 20 μM (Figure S 23). Considering the high number of hydrophobic residues in BID and S peptides, organic co-solvents were used to ensure good solubility and avoid aggregation at concentrations high enough for CD analyses. DMSO stocks of peptides were not used for CD due to its high absorbance below 230 nm.
The raw circular dichroism data obtained for the peptides was processed by the subtraction of the solvent signal and converted into a mean residue ellipticity:
Where = molar ellipticity[θ]MRE per residue, θ = circular dichroism at a given wavelength, c = molar concentration, l = path length in cm, R = number of residues in the peptide sequence.
Calculation of % helicity was performed by the following equation:[4]
Where: θH = Theoretical MRE for 100% helicity at 222 nm, θ0 = Theoretical MRE for 100% helicity at 222 nm at 0 °C = –44000, (∂θ/∂T) = temperature dependence of infinite helix = +250, T = temperature in °C, x = 3, Nr = number of residues in the peptide.
In both solvent systems, it is noteworthy that STA-peptides are more helical than RED-peptides or WT-peptides; with the exception of constrained S-Cys-peptides. The use of TFE as co-solvent in water enhances the α-helicity of both series of peptides compared to the use of acetonitrile in water. […]
thus bioactive) conformation. The S peptides show a low helix propensity which is consistent […]
Figure S 23: CD spectra A. and B. in 30% TFE:H 2O; C. and D. in 30% CH3CN:H 2O.
Table 1: Percentage of helicity in the three solvent systems […]
(also on this page, place not known: Molar residue ellipticity (deg.cm 2 .dmol -1 ) Molar residue ellipticity (deg.cm 2 .dmol -1 ) Molar residue ellipticity (deg.cm 2 .dmol -1 ) Molar residue ellipticity (deg.cm 2 .dmol -1 ) TFE:H2O; CH3CN:H2O.)

Chain of BODIPY-BAK/Bcl-xL interaction (Q07817 whole entry): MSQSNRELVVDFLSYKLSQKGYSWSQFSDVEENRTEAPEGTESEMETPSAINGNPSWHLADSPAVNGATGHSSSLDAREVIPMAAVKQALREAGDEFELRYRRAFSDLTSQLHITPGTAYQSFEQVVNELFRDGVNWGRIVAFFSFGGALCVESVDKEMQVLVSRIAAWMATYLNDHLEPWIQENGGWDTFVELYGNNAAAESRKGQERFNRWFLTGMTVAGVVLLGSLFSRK
Chain of FITC-BID/Mcl-1 interaction (Q07820 172-327 limits assumed): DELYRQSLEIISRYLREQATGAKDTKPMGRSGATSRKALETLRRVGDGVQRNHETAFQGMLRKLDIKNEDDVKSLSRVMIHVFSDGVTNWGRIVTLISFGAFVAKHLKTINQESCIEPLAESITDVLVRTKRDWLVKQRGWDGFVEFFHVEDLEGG

| IC50 [1] [µM] | half-life [2] [min] | IC50 [3] [µM] | Percentage of helicity, 30% TFE:H2O [4] [%] | Percentage of helicity, 30% CH3CN:H2O ([4]; 30% CH3CN:H2O) [%] | Compound |
| --- | --- | --- | --- | --- | --- |
| 70.9 | 22 | 23.4 |  |  | CCCC[C@H](NC(=O)[C@H](CS)NC(=O)[C@H](CC(=O)O)NC(=O)CNC(=O)[C@@H](NC(=O)[C@H](CS)NC(=O)[C@H](C)NC(=O)[C@H](CC(C)C)NC(=O)[C@H](Cc1c[nH]cn1)NC(=O)[C@H](CCCNC(=N)N)NC(=O)[C@H](C)NC(=O)[C@@H](NC(=O)[C@H](CC(N)=O)NC(=O)[C@H](CCCNC(=N)N)NC(=O)[C@@H](NC(=O)[C@@H](NC(=O)[C@H](CC(=O)O)NC(=O)[C@H](CCC(=O)O)NC(C)=O)[C@@H](C)CC)[C@@H](C)CC)[C@@H](C)CC)C(C)C)C(=O)N[C@@H](CC(=O)O)C(=O)N[C@@H](CCCNC(=N)N)C(=O)N[C@@H](CO)C(=O)N[C@H](C(=O)N[C@@H](Cc1c[nH]c2ccccc12)C(N)=O)[C@@H](C)CC [1a] (Ac-EDIIRNIARHLACVGDC[Nle]DRSIW-NH2) |
|  | 32 |  | 23 |  | CCCC[C@H](NC(=O)[C@H](CCS)NC(=O)[C@H](CC(=O)O)NC(=O)CNC(=O)[C@@H](NC(=O)[C@H](CCS)NC(=O)[C@H](C)NC(=O)[C@H](CC(C)C)NC(=O)[C@H](Cc1c[nH]cn1)NC(=O)[C@H](CCCNC(=N)N)NC(=O)[C@H](C)NC(=O)[C@@H](NC(=O)[C@H](CC(N)=O)NC(=O)[C@H](CCCNC(=N)N)NC(=O)[C@@H](NC(=O)[C@@H](NC(=O)[C@H](CC(=O)O)NC(=O)[C@H](CCC(=O)O)NC(C)=O)[C@@H](C)CC)[C@@H](C)CC)[C@@H](C)CC)C(C)C)C(=O)N[C@@H](CC(=O)O)C(=O)N[C@@H](CCCNC(=N)N)C(=O)N[C@@H](CO)C(=O)N[C@H](C(=O)N[C@@H](Cc1c[nH]c2ccccc12)C(N)=O)[C@@H](C)CC [1b] |
| 19.4 | 75 | 16.6 |  |  | CCCC[C@H](NC(=O)[C@@H]1CSC2=C(SC[C@H](NC(=O)[C@H](C)NC(=O)[C@H](CC(C)C)NC(=O)[C@H](Cc3c[nH]cn3)NC(=O)[C@H](CCCNC(=N)N)NC(=O)[C@H](C)NC(=O)[C@@H](NC(=O)[C@H](CC(N)=O)NC(=O)[C@H](CCCNC(=N)N)NC(=O)[C@@H](NC(=O)[C@@H](NC(=O)[C@H](CC(=O)O)NC(=O)[C@H](CCC(=O)O)NC(C)=O)[C@@H](C)CC)[C@@H](C)CC)[C@@H](C)CC)C(=O)N[C@@H](C(C)C)C(=O)NCC(=O)N[C@@H](CC(=O)O)C(=O)N1)C(=O)NC2=O)C(=O)N[C@@H](CC(=O)O)C(=O)N[C@@H](CCCNC(=N)N)C(=O)N[C@@H](CO)C(=O)N[C@H](C(=O)N[C@@H](Cc1c[nH]c2ccccc12)C(N)=O)[C@@H](C)CC [3a] (Ac-EDIIRNIARHLACVGDC[Nle]DRSIW-NH2; linker 13-17 via Maleimide(3,4-diyl)) |
|  | 84 |  | 47 | 43 | CCCC[C@H](NC(=O)[C@@H]1CCSC2=C(SCC[C@H](NC(=O)[C@H](C)NC(=O)[C@H](CC(C)C)NC(=O)[C@H](Cc3c[nH]cn3)NC(=O)[C@H](CCCNC(=N)N)NC(=O)[C@H](C)NC(=O)[C@@H](NC(=O)[C@H](CC(N)=O)NC(=O)[C@H](CCCNC(=N)N)NC(=O)[C@@H](NC(=O)[C@@H](NC(=O)[C@H](CC(=O)O)NC(=O)[C@H](CCC(=O)O)NC(C)=O)[C@@H](C)CC)[C@@H](C)CC)[C@@H](C)CC)C(=O)N[C@@H](C(C)C)C(=O)NCC(=O)N[C@@H](CC(=O)O)C(=O)N1)C(=O)NC2=O)C(=O)N[C@@H](CC(=O)O)C(=O)N[C@@H](CCCNC(=N)N)C(=O)N[C@@H](CO)C(=O)N[C@H](C(=O)N[C@@H](Cc1c[nH]c2ccccc12)C(N)=O)[C@@H](C)CC [3b] |
